In the supplement of paper PMC10307832:

Assays:
Assay in all cases: relative viability (nuclei count vs DMSO), 5 days (fraction); higher = more cells survive
[1] = compound: O=C(C[C@H]1NCCC[C@@H]1O)Cn1cnc2cc(Br)c(Cl)cc2c1=O (racemic) [Halofuginone] + Nc1ncn([C@H]2C[C@H](O)[C@@H](CO)O2)c(=O)n1 [Decitabine] (partner 2 µM)
How it was run: (§1)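 Lung cancer cell lines were pin-tool dosed in 1536-well plates on the day after seeding, with either a lone drug or a fixed anchor-drug dose plus five library-drug doses (not always all listed) in √10 steps. Nuclei were counted on 4× images after 5 days. Relative viability is the ratio of treated-well to vehicle-well nuclei counts, with each value a median of duplicate plates.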

[2] = compound: O=C(C[C@H]1NCCC[C@@H]1O)Cn1cnc2cc(Br)c(Cl)cc2c1=O (racemic) [Halofuginone] + CC1(C)CCC(c2ccc(Cl)cc2)=C(CN2CCN(c3ccc(C(=O)NS(=O)(=O)c4ccc(N[C@H](CCN5CCOCC5)CSc5ccccc5)c(S(=O)(=O)C(F)(F)F)c4)cc3)CC2)C1 [Navitoclax] (partner 0.5 µM)
How it was run: as §1

[3] = compound: O=C(C[C@H]1NCCC[C@@H]1O)Cn1cnc2cc(Br)c(Cl)cc2c1=O (racemic) [Halofuginone] + CCNC(=O)c1noc(-c2cc(C(C)C)c(O)cc2O)c1-c1ccc(CN2CCOCC2)cc1 [Luminespib] (partner 0.01 µM)
How it was run: as §1

Decitabine + Vorinostat = compound: Nc1ncn([C@H]2C[C@H](O)[C@@H](CO)O2)c(=O)n1 [Decitabine] + O=C(CCCCCCC(=O)Nc1ccccc1)NO [Vorinostat] (partner 1 µM)
How it was run: as §1

## UMC-11
[1]; first compound 0.001 µM
  relative viability: 0.646
[1]; first compound 0.003162 µM
  relative viability: 0.848
[1]; first compound 0.01 µM
  relative viability: 0.59
[1]; first compound 0.03162 µM
  relative viability: 0.604
[1]; first compound 0.1 µM
  relative viability: 0.426
[2]; first compound 0.001 µM
  relative viability: 0.325
[2]; first compound 0.003162 µM
  relative viability: 0.314
[2]; first compound 0.01 µM
  relative viability: 0.324
[2]; first compound 0.03162 µM
  relative viability: 0.26
[2]; first compound 0.1 µM
  relative viability: 0.138
[3]; first compound 0.001 µM
  relative viability: 1.08
[3]; first compound 0.003162 µM
  relative viability: 1.05
[3]; first compound 0.01 µM
  relative viability: 1.02
[3]; first compound 0.03162 µM
  relative viability: 0.703
[3]; first compound 0.1 µM
  relative viability: 0.412
Decitabine + Vorinostat; first compound 0.04 µM
  relative viability: 0.269
Decitabine + Vorinostat; first compound 0.1265 µM
  relative viability: 0.263
Decitabine + Vorinostat; first compound 0.4 µM
  relative viability: 0.236
Decitabine + Vorinostat; first compound 1.265 µM
  relative viability: 0.19
Decitabine + Vorinostat; first compound 4 µM
  relative viability: 0.193
